Consider 1 compound from patent US12268702B2, “Antitumor pharmaceutical composition comprising azvudine and chemotherapeutic agent” (HENAN GENUINE BIOTECH CO., LTD., priority 2023, dated 2025).

In test [1] the test system is OVCAR-8 human ovarian cancer model. Briefly: OVCAR-8 human ovarian cancer subcutaneous xenograft tumor model. Type of test: in vivo. The conditions noted are these: azvudine 1 mg/kg, paclitaxel 15 mg/kg, avastin 10 mg/kg, combinations 1 + 15 and 1 + 10 mg/kg. The procedure:
OVCAR-8 cells were cultured in RPMI1640 medium containing 10% fetal bovine serum. OVCAR-8 cells in the exponential growth phase were collected, resuspended in PBS to an appropriate concentration and mixed with Matrigel at a ratio of 1:1. The resulting mixture was used for subcutaneous inoculation of tumor in mice.
1×10^7 OVCAR-8 cells were inoculated subcutaneously on the right side of female mice. When the average tumor volume achieved 174.25 mm^3, the mice were randomly divided into groups according to tumor size.
The experimental protocols for animal experiments in this experiment were reviewed and approved by the CrownBio IACUC committee. During the experiment, the animal experiments were performed in accordance with the requirements of AAALAC. After tumor inoculation was completed, the impact of tumor growth and treatment on normal behavior of animals was routinely monitored, specifically the activity of experimental animals, food intake and water intake, body weight gain or loss (body weight was measured twice a week), eye, hair and other abnormalities. The clinical symptoms observed during the experiment were recorded in the original data. The tumor volume was calculated according to the following formula: tumor volume (mm^3)=½×(a×b^2) (where a represents long diameter and b represents short diameter).
Relative tumor proliferation rate, T/C %, refers to the percentage value of the relative tumor volume or tumor weight of the treatment group and the control group at a certain time point, which was calculated as follows: • T/C %=TRTV/CRTV×100% (TRTV: the average RTV of the treatment group; CRTV: the average RTV of the vehicle control group; RTV=Vt/V0, where V0 is the tumor volume of the animal when grouped, and Vt is the tumor volume of the animal after treatment); • or T/C %=TTW/CTW×100% (TTW: the average tumor weight of the treatment group at the end of the experiment; CTW: the average tumor weight of the vehicle control group at the end of the experiment).
Relative tumor inhibition rate, TGI (%), was calculated according to the formula as follows: TGI %=(1−T/C)×100%. (T and C are the relative tumor volumes (RTV) or tumor weights (TW) of the treatment group and the control group at a specific time point).
To compare tumor volumes of different treatment groups on a given day, first the assumption of homogeneity of variance among all groups was tested using the Bartlett test. When the p-value of Bartlett's test was not less than 0.05, whether all group means were equal was tested using one-way ANOVA. If the p-value of the one-way ANOVA was less than 0.05, pairwise comparisons among all groups were conducted using Tukey's HSD test, or pairwise comparisons between each treatment group and control group were conducted using Dunnett's t-test. When the p-value of Bartlett's test was less than 0.05, whether the medians of all groups were equal was tested using Kruskal Wallis test. If the p-value of the Kruskal Wallis test was less than 0.05, pairwise comparisons among all groups or between each treatment group and control group were conducted using Conover test, and the corresponding p-value correction was performed according to the number of groups in the multiple test.

The test system of test [2] is LoVo xenograft tumor model. Briefly: LoVo human colon cancer subcutaneous xenograft tumor model. The format is in vivo. The settings on record: 21st day of administration, azvudine 1 mpk, capecitabine 400 mpk, combination 1 + 400 mpk; for Tumor volume (mm^3): BALB/c nude mice, p.o. QD x 3 weeks. As to the method: Human colon cancer cells LoVo (Cat. No.: ECACC-87060101) were cultured in vitro as a monolayer in F12K medium containing 10% fetal bovine serum, 100 U/mL penicillin and 100 μg/mL streptomycin, in a 37° C. and 5% CO2 incubator. The cells were routinely digested with trypsin-EDTA and passaged twice a week. When the cell saturation reached 80%-90% and the cell number achieved the requirement, the cells were collected, counted and inoculated.
0.1 mL)(10×10^6) of LoVo cells were subcutaneously inoculated on the right back of each mouse. The grouping administration was started when the average tumor volume reached about 147 mm^3.
The tumor volume changes and the tumor weight changes in each group (on the 21st day of administration) after administration of test drugs for treating BALB/c nude mice with Lovo cell subcutaneous xenograft tumor are shown in Table 5 and Table 6 respectively.
(A xenograft is tissue or cells of one species grown in another, often human tumour cells in immunodeficient mice.)

Structures are written as SMILES.

Consider `[N-]=[N+]=N[C@]1(CO)O[C@@H](n2ccc(N)nc2=O)[C@@H](F)[C@@H]1O` [Azvudine, azvudine], for which, in test [1] (34th day after grouping), the “T/C (%)” value came out at 81.91%, the “TGI (%)” value was determined as 18.09% and the “Tumor volume (x ± S)” value is reported as 460.67 ± 105.37(6). In addition, the average tumor volume in test [1] (34th day of administration) is recorded as 460.67 mm^3. In test [2], the “Tumor volume (mm^3)” value came out at 902 ± 163 mm^3 and the “Tumor weight” value is reported as 0.937 ± 0.142 g. Moreover, the “Tumor volume (mm^3)” value in test [2] (listed as azvudine) was found to be 902 mm^3. Also, in test [2] (based on tumor volume), the “T/C (%)” value stood at 62.00% and the “TGI (%)” value amounted to 43.40%. Moreover, the “T/C (%)” value in test [2] (based on tumor weight) worked out at 66.37%.
